Measured values from patent publication US9546129B2, “DTPA prodrugs, compositions thereof, and methods of using the same” (priority 2012, dated 2017).

Tested on: ^241Am contaminated rats
Test: C2E2 single dose ^241Am decorporation in rats (IM contamination)
Assay type: in vivo, Sprague Dawley rat
Details: for Cage Wash ^241Am / Feces ^241Am / Liver burden / Total Decorporation / Urine ^241Am: single dose 24 h after IM ^241Am, 7 days
Protocol: This study was to assess the efficacy of a single oral gavage dose of C2E2 in ^241Am contaminated rats. A 200 μL aliquot was withdrawn from a stock solution of ^241Am nitrate (0.1 mCi in 5 mL 1 M HNO3), evaporated to dryness, dissolved in concentrated HNO3 (15 M, 5 mL) then evaporated to dryness and dissolved in dilute HNO3 (0.1 M, 8 mL) to form the injection solution. Groups of 4 female Sprague-Dawley rats were contaminated with 250 nCi of ^241Am nitrate by IM injection ([…]) then were administered single doses of C2E2 by gavage at 200, 600, or 1000 mg/kg under ad lib feeding conditions utilizing a 10% w/w solution in sterile water (dose volumes were 2, 6, and 10 mL/kg, for the 200, 600, and 1000 mg/kg doses, respectively). For the fasted component of the study, the animals were fasted 24 hours before treatment then for 2 hours post drug administration. Control groups with ad lib access to food and water were either untreated or administered an IV dose of the calcium salt of DTPA (Ca-DTPA) at 14 mg/kg (target dose volume of 0.7 mL/kg and concentration of 20 mg/mL). Treatment was administered 1 day after contamination. All animals were euthanized 7 days after contamination and the following tissues were collected: liver, both kidneys, both femurs as well as the ipsilateral and the contralateral hind leg muscle tissue and the pelt from the injection site. Urine and feces were collected from the time of contamination through euthanasia. Cage washings were also collected at the end of the study and considered part of total urine collection. Two aliquots (100 μL) of the injection solution were removed and ^241Am gamma activity was determined using radiomatic detection. The average of these standards is the injected dose used for all animals. All tissues and samples were counted in a similar manner. Americium content was expressed as a percentage of the injected dose. Overall recovery of radioactivity across all groups in this study was approximately 90%. […] The primary route by which both DTPA and C2E2 enhanced elimination of ^241Am occurred was by urinary clearance. […] Fecal clearance of ^241Am was not altered by feeding status, an observation that is consistent with the similar liver burden between the two groups at the end of the study. […] As with DTPA, enhanced decorporation by C2E2 occurred through enhanced urinary clearance.
Male and female Sprague Dawley rats (n=4/gender/dose) were administered single oral doses of diethylenetriaminepentaacetic acid diethyl ester (C2E2) by gavage 24 hours after intramuscular contamination with ^241Am(NO3)3 (250 nCi) under ad libitum and fasted conditions. Animals received single oral nominal doses of 200, 600, or 1000 mg/kg C2E2. Untreated animals and animals treated with an intravenous dose of Ca-DTPA ([…]) 24 hours after contamination served as controls; only ad libitum conditions were used for control animals. Total radionuclide decorporation and radionuclide tissue burden were evaluated seven days after contamination.
Male and female Sprague Dawley rats were contaminated with ^241Am(NO3)3 (0.25 μCi) by intramuscular injection (0.1 mL, 0.1 M HNO3) into the right hind leg, under isoflurane anesthesia. Immediately after injection, body weights were recorded (Day 0 weight) and animals were placed in individual metabolic cages.
Approximately eight hours after contamination—and 16 hours before test article administration—rats assigned to the Fasted groups had access to food restricted by removing the food chamber from their metabolic cages and collecting all loose chow from their housing chambers. Food chambers were replaced 1 hour after oral gavage treatment, restoring access to food. At all other times all animals had ad libitum access to food.
Male and female Sprague-Dawley rats assigned to test groups each received a single oral gavage dose of 0, 200, 600, or 1000 mg/kg of C2E2 utilizing a 10% w/w solution in water 24 hours after contamination. […]

[1] = C2E2 200 mg/kg gavage, ad lib, female rats
[2] = C2E2 200 mg/kg gavage, fasted, female rats
[3] = C2E2 600 mg/kg gavage, ad lib, female rats
[4] = C2E2 600 mg/kg gavage, fasted, female rats
[5] = C2E2 1000 mg/kg gavage, ad lib, female rats
[6] = C2E2 1000 mg/kg gavage, fasted, female rats

For CCOC(=O)CN(CCN(CCN(CC(=O)O)CC(=O)OCC)CC(=O)O)CC(=O)O [C2E2, 6,9-bis(carboxymethyl)-3-(2-ethoxy-2-oxoethyl)-11-oxo-12-oxa-3,6,9-triazatetradecan-1-oic acid], which “Cage Wash ^241Am” value [1] is on record?
The value was 1.8 ± 0.5%.

And the “Feces ^241Am” value [1]?
The value was 5.9 ± 0.8%.

And the Liver burden [1]?
Its Liver burden is 17.7 ± 2.1 % injected.

What about the “Total Decorporation” value [1] of the same compound?
Its value is 14.4 ± 0.7 % injected.

What about the “Urine ^241Am” value [1] of the same compound?
Its value is 6.7 ± 1.5%.

What about the “Cage Wash ^241Am” value [2] of the same compound?
The value was 1.3 ± 0.5%.

What about the “Feces ^241Am” value [2] of the same compound?
The value was 4.7 ± 2.1%.

And the Liver burden [2]?
The Liver burden was 20.9 ± 3.5 % injected.

And the “Total Decorporation” value [2]?
The value was 14.3 ± 3.2 % injected.

What about the “Urine ^241Am” value [2] of the same compound?
Its value is 8.4 ± 1.3%.

And the “Cage Wash ^241Am” value [3]?
Its value is 2.2 ± 0.8%.

And the “Feces ^241Am” value [3]?
Its value is 7.7 ± 2.0%.

And the Liver burden [3]?
Its Liver burden is 18.6 ± 4.5 % injected.

And the “Total Decorporation” value [3]?
The value was 22.3 ± 3.1 % injected.

And the “Urine ^241Am” value [3]?
Its value is 12.4 ± 1.3%.

And the “Cage Wash ^241Am” value [4]?
Its value is 2.6 ± 0.8%.

What about the “Feces ^241Am” value [4] of the same compound?
The value was 7.3 ± 1.5%.

What about the Liver burden [4] of the same compound?
Its Liver burden is 18.9 ± 2.3 % injected.

What about the “Total Decorporation” value [4] of the same compound?
Its value is 24.2 ± 3.3 % injected.

And the “Urine ^241Am” value [4]?
Its value is 14.3 ± 2.9%.

And the “Cage Wash ^241Am” value [5]?
The value was 3.4 ± 0.3%.

And the “Feces ^241Am” value [5]?
Its value is 6.9 ± 1.7%.

What about the Liver burden [5] of the same compound?
The Liver burden was 14.5 ± 1.5 % injected.

What about the “Total Decorporation” value [5] of the same compound?
The value was 23.8 ± 3.0 % injected.

And the “Urine ^241Am” value [5]?
The value was 13.5 ± 1.7%.

And the “Cage Wash ^241Am” value [6]?
Its value is 4.5 ± 0.7%.

What about the “Feces ^241Am” value [6] of the same compound?
The value was 7.1 ± 1.3%.

And the Liver burden [6]?
The Liver burden was 13.7 ± 3.1 % injected.

What about the “Total Decorporation” value [6] of the same compound?
Its value is 31.3 ± 5.5 % injected.

What about the “Urine ^241Am” value [6] of the same compound?
Its value is 19.8 ± 3.9%.

And the “Efficacy compared with intravenous Ca-DTPA” value (C2E2 1000 mg/kg single oral dose vs Ca-DTPA 13.3 mg/kg iv, no equivalence analysis)?
The value was “comparable, in terms of efficacy, to an intravenous dose of Ca-DTPA (13.3 mg/kg)”.

What about the “Effect of fasting on efficacy of the C2E2 dose” value (daily urinary and fecal americium, male and female rats) of the same compound?
Its value is “not altered by fasting rats prior to their C2E2 treatment”.

What about the “Skeletal burden vs untreated controls (statistics)” value (female rats) of the same compound?
Its value is “not significantly changed by C2E2 treatment”.

And the “Dose with significantly enhanced decorporation vs untreated controls” value (female rats, p<0.001)?
The value was “above 600 mg/kg”.

What about the “^241Am liver burden vs untreated controls (statistics)” value (female rats, p<0.01) of the same compound?
The value was “Only the reduction in burden following the 1000 mg/kg dose was statistically significant”.

And the “Wound site retention of americium vs untreated controls (statistics)” value (male and female rats)?
Its value is “did not correspond with a significant change in tissue burden compared to untreated controls at any single C2E2 dose”.

And the “Dose with significant reduction of estimated skeletal americium burden vs untreated controls” value (male rats)?
Its value is at least 600 mg/kg.

And the “^241Am liver burden vs untreated controls (statistics)” value (male rats)?
The value was “significantly reduced compared to untreated controls at doses of 200 mg/kg (p<0.05) and 1000 mg/kg (p<0.001)”.

What about the “Dose with significantly increased total decorporation vs untreated controls” value (male rats, p<0.001) of the same compound?
The value was at least 600 mg/kg.
